Measurements: article PMC8145535, “New Acyl Derivatives of 3-Aminofurazanes and Their Antiplasmodial Activities” (Pharmaceuticals, 2021)
pIC50: −log10 of the molar value. Where two headings read alike, the source gives them in different places.

How the values were obtained:
[1] = tested on: P. falciparum K1; assay: In vitro 3H-hypoxanthine incorporation assay, erythrocytic stages, K1 strain; assay type: cell-based; conditions: Plasmodium falciparum
Description: (§1) Chloroquine (Sigma C6628) was used as standard. […] Serial drug dilutions of 11 3-fold dilution steps covering a range from 100 to 0.002 μg/mL were prepared. The 96-well plates were incubated in a humidified atmosphere at 37 °C; 4% CO2, 3% O2, 93% N2. […] The plates were incubated for a further 24 h under the same conditions. The plates were then harvested with a Betaplate cell harvester (Wallac, Zurich, Switzerland). The red blood cells were transferred onto a glass fiber filter and washed with distilled water. The dried filters were inserted into a plastic foil with 10 mL of scintillation fluid and counted in a Betaplate liquid scintillation counter (Wallac, Zurich, Switzerland).

[2] = in vitro; conditions: rat
Description: Serial drug dilutions of 11 3-fold dilution steps covering a range from 100 to 0.002 μg/mL were prepared. After 70 h of incubation, the plates were inspected under an inverted microscope to assure the growth of the controls and sterile conditions. […] Then, the plates were read with a Spectramax Gemini XS microplate fluorometer (Molecular Devices Cooperation, Sunnyvale, CA, USA) using an excitation wavelength of 536 nm and an emission wavelength of 588 nm. […] Podophyllotoxin (Sigma P4405) was used as control.

[3] = tested on: early gametocyte stages; set-up: method as in PMID 24060871, PMID 23234555, PMID 26787698, PMID 26749441, PMID 17521751; conditions: cited from earlier work
[4] = tested on: P. falciparum NF54; assay: In vitro 3H-hypoxanthine incorporation assay, erythrocytic stages, NF54 strain; assay type: cell-based, Plasmodium falciparum; conditions: average of four determinations, read-out: P.f. NF54 IC50
Description: as §1

[5] = tested on: multiresistant strain K1 of Plasmodium falciparum; set-up: method as in PMID 27467575; conditions: MMV Malaria Box; cited from earlier work
[6] = tested on: P. berghei liver schizonts; set-up: method as in PMID 27275010, PMID 16242190; conditions: P. berghei assay; cited from earlier work
[7] = tested on: Na+-efflux pump PfATP4; set-up: method as in PMID 25145582, PMID 33023071, PMID 19956997, PMID 25715757; conditions: possible target; cited from earlier work
[8] = Parallel artificial membrane permeability assay (PAMPA); assay type: in vitro ADME; conditions: pH 7.4, 200 µM in PBS, room temperature; for Papp at 5 h, 200 µM: pH 7.4, PAMPA, read-out: Pe (effective permeability)
Description: The PAMPA was performed using a 96-well precoated Corning Gentest PAMPA plate at a pH of 7.4. The PAMPA plate system consists of a donor plate and an acceptor plate. When both plates are coupled, each well is divided into two chambers that are separated by a lipid–oil–lipid trilayer constructed in a porous filter. Stock solutions (10 mM) of each compound were prepared in DMSO and then further diluted to a concentration of 200 µM in phosphate-buffered saline (PBS) at pH 7.4. The compound dissolved in PBS was then added to the donor plate and pure PBS was added to the acceptor plate. Four replicates of each compound and negative control (PBS) were transferred into different wells of the donor plate. Both plates were coupled and left at room temperature for 5 h. Then, the plates were separated, and the solutions of each donor well and acceptor well were transferred to 96-well UV-Star Microplates (Greiner Bio-One). The UV absorbance of compounds in donor wells and acceptor wells were analyzed by a SpectraMax M3 UV plate reader (Molecular Devices). The concentrations were received from a calibration curve for each substance. The plates were analyzed at a wavelength where the R^2 value of the calibration curve was higher than 0.99 [34]. The effective permeability (Pe) was calculated as shown in the following Equations (1)–(3):(1) Penm/s=10^7∗−ln1−cAt/cequ/S∗1/VD+1/VA∗ t where:
cequ—equilibrium concentration. (2) cequ=cDt ∗VD+cAt ∗VA/VD+VA where:
Recovery of compounds from donor and acceptor wells (mass retention) was calculated as shown in the equation below. Data were only accepted when recovery exceeded 70%.

[9] = tested on: multiresistant strain Dd2 of Plasmodium falciparum; set-up: method as in PMID 27467575; conditions: MMV Malaria Box; cited from earlier work
[10] = K1, strain resistant to chloroquine and pyrimethamine, average of four determinations, read-out: P.f. K1 IC50
[11] = Plasmodium falciparum, NF54, chloroquine-sensitive strain

Row | pIC50 [1, 10] | IC50 at 72 h [2] [µM] | pIC50 [4, 11] | Papp at 5 h, 200 µM [8] [nm/s] | melting point | Structure (SMILES) | also measured
1 | 8.19 | 450 | – | – | – | C[C@@H]1CC[C@H]2[C@@H](C)C(=O)O[C@@H]3O[C@@]4(C)CC[C@@H]1[C@]32OO4 [ART, artemisinin, reference compound] | –
2 | 7.04 | 111 | 7.12 | – | 199 °C | CCOc1ccc(-c2nonc2NC(=O)c2ccccc2)cc1OCC [Compound 10, N-(4-(3,4-Diethoxyphenyl)-1,2,5-oxadiazol-3-yl)benzamide] | –
3 | – | 14.9 | 6.08 to 6.46 | – | – | CCOc1ccc(-c2nonc2NC(=O)c2ccccc2C)cc1OCC [Compound 11, N-(4-(3,4-Diethoxyphenyl)-1,2,5-oxadiazol-3-yl)-2-methylbenzamide] | pIC50 ([4]; chloroquine-sensitive strain): 6.46
4 | – | 14.2 | – | – | – | CCOc1ccc(-c2nonc2NC(=O)c2ccccc2C(F)(F)F)cc1OCC [Compound 12, N-(4-(3,4-Diethoxyphenyl)-1,2,5-oxadiazol-3-yl)-2-(trifluoromethyl)benzamide] | –
5 | 8.15 | 9.97 | 7.72 | 42.6 | 153 °C | CCOc1ccc(-c2nonc2NC(=O)c2cccc(C(F)(F)F)c2)cc1OCC [Compound 13, N-(4-(3,4-Diethoxyphenyl)-1,2,5-oxadiazol-3-yl)-3-(trifluoromethyl)benzamide] | –
6 | 6.97 | 41.1 | 7.31 | – | 250 °C | CCOc1ccc(-c2nonc2NC(=O)c2cccc(F)c2)cc1OCC [Compound 14, N-(4-(3,4-Diethoxyphenyl)-1,2,5-oxadiazol-3-yl)-3-fluorobenzamide] | –
7 | – | 14 | 7.01 | – | – | CCOc1ccc(-c2nonc2NC(=O)c2cccc(OC(F)(F)F)c2)cc1OCC [Compound 15, N-(4-(3,4-Diethoxyphenyl)-1,2,5-oxadiazol-3-yl)-3-(trifluoromethoxy)benzamide] | –
8 | – | 20 | 6.78 to 7.85 | – | 260 °C (dec.) | CCOc1ccc(-c2nonc2NC(=O)c2ccc(OC)c(Cl)c2)cc1OCC [Compound 16, 3-Chloro-N-(4-(3,4-diethoxyphenyl)-1,2,5-oxadiazol-3-yl)-4-methoxybenzamide] | pIC50 ([4]; chloroquine-sensitive strain): 7.85
9 | – | 35 | – | 39 | 232 °C (dec.) | CCOc1ccc(-c2nonc2NC(=O)c2ccc(OC)c(F)c2)cc1OCC [Compound 17, N-(4-(3,4-Diethoxyphenyl)-1,2,5-oxadiazol-3-yl)-3-fluoro-4-methoxybenzamide] | –
10 | 5.73 | 102 | – | 81.3 | 251 °C (dec.) | CCOc1ccc(-c2nonc2NC(=O)c2ccc(CN3CCCC3)cc2)cc1OCC [Compound 26, N-(4-(3,4-Diethoxyphenyl)-1,2,5-oxadiazol-3-yl)-4-((pyrrolidin-1-yl)methyl)benzamide] | –
11 | 6.23 | 116 | 5.39 to 6.17 | – | 269 °C (dec.) | CCOc1ccc(-c2nonc2NC(=O)c2ccc(CN3CCOCC3)cc2)cc1OCC [Compound 27, N-(4-(3,4-Diethoxyphenyl)-1,2,5-oxadiazol-3-yl)-4-((morpholin-4-yl)methyl)benzamide] | pIC50 ([4]; chloroquine-sensitive strain): 6.17
12 | – | 77.2 | 6.72 | 72.6 | – | CCOc1ccc(-c2nonc2NC(=O)c2cccc(CN3CCCC3)c2)cc1OCC [Compound 28, N-(4-(3,4-Diethoxyphenyl)-1,2,5-oxadiazol-3-yl)-3-((pyrrolidin-1-yl)methyl)benzamide] | –
13 | – | 104 | 6.15 | 56.5 | 199 °C | CCOc1ccc(-c2nonc2NC(=O)c2cccc(CN3CCOCC3)c2)cc1OCC [Compound 29, N-(4-(3,4-Diethoxyphenyl)-1,2,5-oxadiazol-3-yl)-3-((morpholin-4-yl)methyl)benzamide] | –
14 | 5.30 | 242 | 5.14 | 102 to 108 | – | CCOc1ccc(-c2nonc2NC(=O)CN2CCCC2)cc1OCC [Compound 31, N-(4-(3,4-Diethoxyphenyl)-1,2,5-oxadiazol-3-yl)-2-(pyrrolidin-1-yl)acetamide] | Pe (effective permeability) [8]: 10.80 10^−6 cm/s
15 | 4.71 | 266 | 4.62 | 102 to 108 | – | CCOc1ccc(-c2nonc2NC(=O)CN2CCOCC2)cc1OCC [Compound 32, N-(4-(3,4-Diethoxyphenyl)-1,2,5-oxadiazol-3-yl)-2-(morpholin-4-yl)acetamide] | Pe (effective permeability) [8]: 10.25 10^−6 cm/s
16 | 5.62 | 140 | 4.25 | 69.3 | – | CCOc1ccc(-c2nonc2NC(=O)CCN2CCCC2)cc1OCC [Compound 34, N-(4-(3,4-Diethoxyphenyl)-1,2,5-oxadiazol-3-yl)-3-(pyrrolidin-1-yl)propanamide] | –
17 | 4.72 | 147 | 4.52 | 60.8 | – | CCOc1ccc(-c2nonc2NC(=O)CCN2CCOCC2)cc1OCC [Compound 35, N-(4-(3,4-Diethoxyphenyl)-1,2,5-oxadiazol-3-yl)-3-(morpholin-4-yl)propanamide] | –
18 | 4.40 | 66 | 4.67 | 84.7 | – | Cc1cccc(C(=O)Nc2nonc2-c2ccccc2)c1 [Compound 39, 3-Methyl-N-(4-phenyl-1,2,5-oxadiazol-3-yl)benzamide] | –

Row | Structure (SMILES) | pIC50 [1, 10] | IC50 at 72 h [2] [µM] | pIC50 [4, 11] | Papp at 5 h, 200 µM [8] [nm/s] | melting point | also measured
19 | CCN(CC)CCCC(C)Nc1ccnc2cc(Cl)ccc12 (stereo not drawn) [CQ, chloroquine, reference compound] | – | 188 | – | – | – | pIC50 ([1]; K1, read-out: P.f. K1 IC50): 6.82
20 | CCOc1ccc(-c2nonc2NC(=O)c2cccc(C)c2)cc1OCC [Compound 1, N-(4-(3,4-Diethoxyphenyl)-1,2,5-oxadiazol-3-yl)-3-methylbenzamide] | 7.96 | 159 | 7.96 | 27.7 | – | activity against early gametocyte stages [3]: working against early gametocyte stages; antiplasmodial activity against multiresistant strain K1 [5]: shows antiplasmodial activity; activity against liver schizonts [6]: activity against liver schizonts; inhibition of PfATP4 [7]: likely to inhibit; antiplasmodial activity against multiresistant strain Dd2 [9]: shows antiplasmodial activity
21 | COc1cc([C@@H]2c3cc4c(cc3[C@H](O)[C@H]3COC(=O)[C@H]23)OCO4)cc(OC)c1OC [POD, podophyllotoxin, reference compound] | – | 0.012 | – | – | – | –
